# Source: patent EP4741383A1, “COMPOUND AND USE THEREOF AS ANTI-CANCER DRUG” (Tyligand Bioscience (Shanghai) Limited, priority 2023, dated 2025)
# pIC50: −log10 of the molar value.
# Columns and labels:
# [1] = target: T1, SHP2 enzyme (catalytic domain, amino acid sequence 224-528) (Homo sapiens, UniProt Q06124); test: SHP2 enzyme inhibition assay (DiFMUP substrate, fluorescence); assay type: biochemical; settings: for pIC50: SHP2 catalytic domain, DiFMUP substrate, 30 min pre-incubation, read-out: S HP2 I C50; for SHP2 IC50 times lower than control compound 11a-1: relative to 11a-1, IC50 = 0.108 µM
# T1 construct: purchased GenScript
# T1 sequence (Q06124 224-528): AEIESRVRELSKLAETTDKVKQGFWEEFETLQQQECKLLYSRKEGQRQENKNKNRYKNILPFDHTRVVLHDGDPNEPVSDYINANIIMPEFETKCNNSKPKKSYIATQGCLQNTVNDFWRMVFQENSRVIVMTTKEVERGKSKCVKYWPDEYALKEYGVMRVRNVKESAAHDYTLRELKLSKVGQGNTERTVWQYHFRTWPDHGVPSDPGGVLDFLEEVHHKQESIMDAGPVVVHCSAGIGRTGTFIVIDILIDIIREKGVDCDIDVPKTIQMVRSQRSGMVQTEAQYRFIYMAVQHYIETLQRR
# In short: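 SHP2 catalytic domain (aa 224-528) preincubated 30 min at room temperature with compounds (10-point 3-fold series) in HEPES pH 7.2 buffer with NaCl, EDTA, DTT, BSA, Brij35. DiFMUP from 50 µM working solution added, 5 min reaction; fluorescence 340/450 nm; IC50 from nonlinear dose-response fit.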
# KYSE520 = test: CellTiter-Glo cell proliferation inhibition, KYSE520; assay type: cell-based, human; settings: Homo sapiens, KYSE-520; KYSE520 cells, 120 hours, CellTiter-Glo
pIC50 [1],SHP2 IC50 times lower than control compound 11a-1 [1],SMILES,IC50 (KYSE520) [µM]
7.21,–,CC1(O)CC2(CCN(c3ccc(NC(=O)C(=O)Nc4ccc(-c5cc6cc(F)c(-c7nnn[nH]7)cc6n5C5(C)CCC5)cc4)cc3)CC2)C1 [Example 95],0.113
7.24,–,O=C(Nc1ccc(-c2cc3cc(F)c(-c4nnn[nH]4)cc3n2C2CCC2)cc1)C(=O)Nc1ccc(N2CCC3(CC2)CC(CO)C3)cc1 [Example 96],0.059
6.98,–,CC1(n2c(-c3ccc(NC(=O)C(=O)Nc4ccc(N5CCC6(CC5)CC(CO)C6)cc4)cc3)cc3cc(F)c(-c4nnn[nH]4)cc32)CCC1 [Example 97],0.095
7.32,–,O=C(Nc1ccc(-c2cc3cc(F)c(-c4nnn[nH]4)cc3n2C2CCC2)cc1)C(=O)Nc1ccc(N2CCC3(CCC(O)C3)CC2)cc1 (stereo not drawn) [Example 100],0.057
7.64,3-4 times,CC1(n2c(-c3ccc(NC(=O)C(=O)Nc4ccc(N5CCC6(CCC(O)C6)CC5)cc4)cc3)cc3cc(F)c(-c4nnn[nH]4)cc32)CCC1 (stereo not drawn) [Example 101],0.128
6.85,–,COC1CC(n2c(-c3ccc(NC(=O)C(=O)Nc4ccc(N5CCC6(CCC(O)C6)CC5)cc4)cc3)cc3cc(F)c(-c4nnn[nH]4)cc32)C1 (stereo not drawn) [Example 103],0.042
7.52,3-4 times,O=C(Nc1ccc(-c2cc3cc(F)c(-c4nnn[nH]4)cc3n2C2CCC2)cc1)C(=O)Nc1ccc(N2CCC3(CCC(O)CC3)CC2)cc1 [Example 108],0.167
7.21,–,CC1(n2c(-c3ccc(NC(=O)C(=O)Nc4ccc(N5CCC6(CCC(O)CC6)CC5)cc4)cc3)cc3cc(F)c(-c4nnn[nH]4)cc32)CCC1 [Example 109],0.107
7.11,–,CC1(O)CCC2(CCN(c3ccc(NC(=O)C(=O)Nc4ccc(-c5cc6cc(F)c(-c7nnn[nH]7)cc6n5C5CCC5)cc4)cc3)CC2)CC1 [Example 110],0.109
7.14,–,O=C(Nc1ccc(-c2cc3cc(F)c(-c4nnn[nH]4)cc3n2C2CCC2)cc1)C(=O)Nc1ccc(N2CC3COCC3C2)cc1 (stereo not drawn) [Example 114],0.118
7.20,–,O=C(Nc1ccc(-c2cc3cc(F)c(-c4nnn[nH]4)cc3n2C2CCC2)cc1)C(=O)Nc1ccc(N2CC3CC(O)CC3C2)cc1 (stereo not drawn) [Example 116],0.092
7.15,–,CC1(O)CC2CN(c3ccc(NC(=O)C(=O)Nc4ccc(-c5cc6cc(F)c(-c7nnn[nH]7)cc6n5C5CCC5)cc4)cc3)CC2C1 (stereo not drawn) [Example 117],0.104
7.35,–,CC1(O)CC2CN(c3ccc(NC(=O)C(=O)Nc4ccc(-c5cc6cc(F)c(-c7nnn[nH]7)cc6n5C5(C)CCC5)cc4)cc3)CC2C1 (stereo not drawn) [Example 118],0.116
7.18,–,O=C(Nc1ccc(-c2ccsc2)cc1)C(=O)Nc1ccc(-c2cc3ccc(-c4nnn[nH]4)cc3n2C2CCC2)cc1 [Example 122],4.36
6.85,–,Cn1cc(-c2ccc(NC(=O)C(=O)Nc3ccc(-c4cc5cc(F)c(-c6noc(=O)[nH]6)cc5n4C4CCC4)cc3)cc2)cn1 [Example 123],0.243
6.15,–,Cn1cc(-c2ccc(NC(=O)C(=O)Nc3ccc(-c4cc5cc(F)c(-c6nnc(C(F)(F)F)[nH]6)cc5n4C4CCC4)cc3)cc2)cn1 [Example 124],0.661
7.60,–,O=C(Nc1ccc(-c2ccsc2)cc1)C(=O)Nc1ccc(-c2oc3cc(F)c(-c4nnn[nH]4)cc3c2C2CCC2)cc1 [Example 130],0.422
7.57,–,O=C(Nc1ccc(-c2ccsc2)cc1)C(=O)Nc1ccc(-c2cc3cc(F)c(-c4nnn[nH]4)nc3n2C2CCC2)cc1 [Example 132],1.1
7.16,–,O=C(Nc1ccc(-c2ccsc2)cc1)C(=O)Nc1ccc(-c2sc3cc(F)c(-c4nnn[nH]4)cc3c2C2CCC2)cc1 [Example 133],0.688

SMILES,pIC50 [1],SHP2 IC50 times lower than control compound 11a-1 [1],IC50 (KYSE520) [µM]
CC1(O)CCC2(CCN(c3ccc(NC(=O)C(=O)Nc4ccc(-c5cc6cc(F)c(-c7nnn[nH]7)cc6n5C5(C)CCC5)cc4)cc3)CC2)CC1 [Example 111],7.03,–,0.105
O=C(Nc1ccc(-c2oc3cc(F)c(-c4nnn[nH]4)cc3c2C2CCC2)cc1)C(=O)Nc1ccc(N2CCC3(CCOC3)CC2)cc1 [Example 125],7.29,–,0.68
O=C(Nc1ccc(-c2ccsc2)cc1)C(=O)Nc1ccc(-c2cc3ccc(-c4nnn[nH]4)nc3n2C2CCC2)cc1 [Example 129],7.23,–,2.85
O=C(Nc1ccc(-c2ccsc2)cc1)C(=O)Nc1ccc(-c2cc3cc(F)c(-c4nnn[nH]4)c(F)c3n2C2CCC2)cc1 [Example 134],7.16,–,0.334
